# Experimental data taken from PubChem BioAssay AID2060501 (Molecular Pharmacology Branch, DTP, NCI, 2025).
# System: 282377-053-R-J1-PDC complex spheroids, viability
# Assay: Anticancer human tumor 282377-053-R-J1-PDC patient-derived colon adenocarcinoma cell line growth inhibition [GQUAD]
# Details: for IC50: curve of first compound; for viability, T/C: stronger effect = lower value
# How it was run: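 Tumor cells were grown as complex spheroids with HUVEC endothelial cells and mesenchymal stem cells as stroma. G-quadruplex stabilizers were combined with targeted agents over half-log dilutions from near the clinical Cmax, or from 10 microM.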
# [1] = second compound 0.0316 µM, first compound 0.0316 µM
# [2] = second compound 0.0316 µM, first compound 0.1 µM
# [3] = second compound 0.0316 µM, first compound 0.316 µM
# [4] = second compound 0.0316 µM, first compound 1 µM
# [5] = second compound 0.0316 µM, first compound 3.16 µM
# [6] = second compound 0.0316 µM, first compound 10 µM
# [7] = second compound 0.1 µM, first compound 0.0316 µM
# [8] = second compound 0.1 µM, first compound 0.1 µM
# [9] = second compound 0.1 µM, first compound 0.316 µM
# [10] = second compound 0.1 µM, first compound 1 µM
# [11] = second compound 0.1 µM, first compound 3.16 µM
# [12] = second compound 0.1 µM, first compound 10 µM
# [13] = second compound 0.316 µM, first compound 0.0316 µM
# [14] = second compound 0.316 µM, first compound 0.1 µM
# [15] = second compound 0.316 µM, first compound 0.316 µM
# [16] = second compound 0.316 µM, first compound 1 µM
# [17] = second compound 0.316 µM, first compound 3.16 µM
# [18] = second compound 0.316 µM, first compound 10 µM
# [19] = second compound 1 µM, first compound 0.0316 µM
# [20] = second compound 1 µM, first compound 0.1 µM
# [21] = second compound 1 µM, first compound 0.316 µM
# [22] = second compound 1 µM, first compound 1 µM
# [23] = second compound 1 µM, first compound 3.16 µM
# [24] = second compound 1 µM, first compound 10 µM
# [25] = second compound 3.16 µM, first compound 0.0316 µM
# [26] = second compound 3.16 µM, first compound 0.1 µM
# [27] = second compound 3.16 µM, first compound 0.316 µM
# [28] = second compound 3.16 µM, first compound 1 µM
# [29] = second compound 3.16 µM, first compound 3.16 µM
# [30] = second compound 3.16 µM, first compound 10 µM
# [31] = second compound 10 µM, first compound 0.0316 µM
# [32] = second compound 10 µM, first compound 0.1 µM
# [33] = second compound 10 µM, first compound 0.316 µM
# [34] = second compound 10 µM, first compound 1 µM
# [35] = second compound 10 µM, first compound 3.16 µM
# [36] = second compound 10 µM, first compound 10 µM
# 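Further: spheroids exposed to compounds for 7 days before readout.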
# 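Wherever viability, T/C is given: percent of vehicle DMSO control viability with 100% = untreated-like growth.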
structure (smiles),measurement,setting,value
C=CCn1c(=O)c2cnc(Nc3ccc(N4CCN(C)CC4)cc3)nc2n1-c1cccc(C(C)(C)O)n1 + Cc1cnc(CNC(=O)c2c(=O)c3ccc(N4CCCN(C)CC4)nc3n3c2sc2ccccc23)cn1,IC50,second compound 0.0316 µM,1590 nM
same,IC50,second compound 0.1 µM,1470 nM
same,IC50,second compound 0.316 µM,731 nM
same,IC50,second compound 1 µM,651 nM
same,IC50,second compound 3.16 µM,295 nM
same,IC50,second compound 10 µM,< 31.6 nM
same,"viability, T/C",[1],109%
same,"viability, T/C",[2],102%
same,"viability, T/C",[3],107%
same,"viability, T/C",[4],67.7%
same,"viability, T/C",[5],24.1%
same,"viability, T/C",[6],15.1%
same,"viability, T/C",[7],115%
same,"viability, T/C",[8],115%
same,"viability, T/C",[9],99.6%
same,"viability, T/C",[10],62.8%
same,"viability, T/C",[11],24.6%
same,"viability, T/C",[12],11.7%
same,"viability, T/C",[13],102%
same,"viability, T/C",[14],97.8%
same,"viability, T/C",[15],73.4%
same,"viability, T/C",[16],40.4%
same,"viability, T/C",[17],22.3%
same,"viability, T/C",[18],12.5%
same,"viability, T/C",[19],75.5%
same,"viability, T/C",[20],75.8%
same,"viability, T/C",[21],65.1%
same,"viability, T/C",[22],40.2%
same,"viability, T/C",[23],22.6%
same,"viability, T/C",[24],13.6%
same,"viability, T/C",[25],55.7%
same,"viability, T/C",[26],60.1%
same,"viability, T/C",[27],45.4%
same,"viability, T/C",[28],42%
same,"viability, T/C",[29],26.2%
same,"viability, T/C",[30],12.1%
same,"viability, T/C",[31],44.4%
same,"viability, T/C",[32],48.5%
same,"viability, T/C",[33],43.1%
same,"viability, T/C",[34],36.6%
same,"viability, T/C",[35],1.31%
same,"viability, T/C",[36],0.34%
CC(C)(O)C1CCC(Nc2ccc3ncc(-c4cccc(C(F)(F)F)c4)n3n2)CC1 (centres undefined) + Cc1cnc(CNC(=O)c2c(=O)c3ccc(N4CCCN(C)CC4)nc3n3c2sc2ccccc23)cn1,IC50,second compound 0.0316 µM,1680 nM
same,IC50,second compound 0.1 µM,910 nM
same,IC50,second compound 0.316 µM,1330 nM
same,IC50,second compound 1 µM,361 nM
same,IC50,second compound 3.16 µM,< 31.6 nM
same,IC50,second compound 10 µM,< 31.6 nM
same,"viability, T/C",[1],96.9%
same,"viability, T/C",[2],83.3%
same,"viability, T/C",[3],93.2%
same,"viability, T/C",[4],78.4%
same,"viability, T/C",[5],12%
same,"viability, T/C",[6],18.7%
same,"viability, T/C",[7],113%
same,"viability, T/C",[8],79.1%
same,"viability, T/C",[9],68.8%
same,"viability, T/C",[10],62.5%
same,"viability, T/C",[11],16%
same,"viability, T/C",[12],20.9%
same,"viability, T/C",[13],77.9%
same,"viability, T/C",[14],82.2%
same,"viability, T/C",[15],77.9%
same,"viability, T/C",[16],57.9%
same,"viability, T/C",[17],22.4%
same,"viability, T/C",[18],29.7%
same,"viability, T/C",[19],62.1%
same,"viability, T/C",[20],45.2%
same,"viability, T/C",[21],46.5%
same,"viability, T/C",[22],40.5%
same,"viability, T/C",[23],7.32%
same,"viability, T/C",[24],18.9%
same,"viability, T/C",[25],45%
same,"viability, T/C",[26],45%
same,"viability, T/C",[27],42%
same,"viability, T/C",[28],34.3%
same,"viability, T/C",[29],0.13%
same,"viability, T/C",[30],0.15%
same,"viability, T/C",[31],34.2%
same,"viability, T/C",[32],21.1%
same,"viability, T/C",[33],12.3%
same,"viability, T/C",[34],0.24%
same,"viability, T/C",[35],0.89%
same,"viability, T/C",[36],0.2%
